Experimental data published in patent US9725465B2, “Biaryl acetamide compounds and methods of use thereof” (Ambit Biosciences Corporation, priority 2013, dated 2017).

Assays:
FLT3-ITD = FLT3-ITD (Homo sapiens (Human), UniProt P36888, INS600HVDFREYEYD); assay: pFLT3 MSD assay, Ba/F3 FLT3-ITD; assay type: cell-based; details: Ba/F3 FLT3-ITD cells, 2 hours, read-out: BaF3-FLT3-ITD pFlt3 IC50
KIT kinase = KIT kinase (Homo sapiens (Human), UniProt P10721); assay: Competition binding assay (Kd), KIT; details: competition binding assay
In short: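 Kd derived from eleven-point threefold serial dilutions of compound competing with bead-bound ligand for kinase; bound kinase eluted and measured by quantitative PCR. Kinase supplied either as a T7 phage fusion or expressed in HEK-293 cells with a DNA tag; DMSO served as control.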

FLT3 kinase = FLT3 kinase (Homo sapiens (Human), UniProt P36888); assay: Competition binding assay (Kd), FLT3; details: competition binding assay
Chain of FLT3 kinase (P36888 27-993): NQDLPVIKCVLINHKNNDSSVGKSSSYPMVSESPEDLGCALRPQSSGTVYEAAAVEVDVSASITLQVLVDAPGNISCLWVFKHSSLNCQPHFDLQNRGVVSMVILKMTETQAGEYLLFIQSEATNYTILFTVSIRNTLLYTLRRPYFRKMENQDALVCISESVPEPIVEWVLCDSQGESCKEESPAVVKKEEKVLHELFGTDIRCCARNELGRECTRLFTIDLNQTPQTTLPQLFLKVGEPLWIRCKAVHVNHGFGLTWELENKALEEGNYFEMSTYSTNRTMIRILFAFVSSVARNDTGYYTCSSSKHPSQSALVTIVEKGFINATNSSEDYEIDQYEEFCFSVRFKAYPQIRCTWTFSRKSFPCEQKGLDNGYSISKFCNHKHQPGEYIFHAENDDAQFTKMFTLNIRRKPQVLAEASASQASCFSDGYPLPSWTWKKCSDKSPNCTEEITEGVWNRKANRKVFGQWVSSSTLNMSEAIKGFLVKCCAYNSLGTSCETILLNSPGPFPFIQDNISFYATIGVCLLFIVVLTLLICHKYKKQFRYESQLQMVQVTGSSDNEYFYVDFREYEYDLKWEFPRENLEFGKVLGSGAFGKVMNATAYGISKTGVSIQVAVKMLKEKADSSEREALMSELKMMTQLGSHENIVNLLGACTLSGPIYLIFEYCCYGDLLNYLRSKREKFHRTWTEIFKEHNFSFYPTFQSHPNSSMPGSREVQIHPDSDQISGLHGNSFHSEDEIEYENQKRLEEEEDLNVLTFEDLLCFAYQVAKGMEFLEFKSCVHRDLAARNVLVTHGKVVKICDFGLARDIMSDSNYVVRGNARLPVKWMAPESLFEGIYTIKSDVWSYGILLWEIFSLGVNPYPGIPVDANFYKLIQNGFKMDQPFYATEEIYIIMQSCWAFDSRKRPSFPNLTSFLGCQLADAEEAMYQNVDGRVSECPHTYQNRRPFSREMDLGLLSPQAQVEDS

Chain of KIT kinase (P10721 26-976): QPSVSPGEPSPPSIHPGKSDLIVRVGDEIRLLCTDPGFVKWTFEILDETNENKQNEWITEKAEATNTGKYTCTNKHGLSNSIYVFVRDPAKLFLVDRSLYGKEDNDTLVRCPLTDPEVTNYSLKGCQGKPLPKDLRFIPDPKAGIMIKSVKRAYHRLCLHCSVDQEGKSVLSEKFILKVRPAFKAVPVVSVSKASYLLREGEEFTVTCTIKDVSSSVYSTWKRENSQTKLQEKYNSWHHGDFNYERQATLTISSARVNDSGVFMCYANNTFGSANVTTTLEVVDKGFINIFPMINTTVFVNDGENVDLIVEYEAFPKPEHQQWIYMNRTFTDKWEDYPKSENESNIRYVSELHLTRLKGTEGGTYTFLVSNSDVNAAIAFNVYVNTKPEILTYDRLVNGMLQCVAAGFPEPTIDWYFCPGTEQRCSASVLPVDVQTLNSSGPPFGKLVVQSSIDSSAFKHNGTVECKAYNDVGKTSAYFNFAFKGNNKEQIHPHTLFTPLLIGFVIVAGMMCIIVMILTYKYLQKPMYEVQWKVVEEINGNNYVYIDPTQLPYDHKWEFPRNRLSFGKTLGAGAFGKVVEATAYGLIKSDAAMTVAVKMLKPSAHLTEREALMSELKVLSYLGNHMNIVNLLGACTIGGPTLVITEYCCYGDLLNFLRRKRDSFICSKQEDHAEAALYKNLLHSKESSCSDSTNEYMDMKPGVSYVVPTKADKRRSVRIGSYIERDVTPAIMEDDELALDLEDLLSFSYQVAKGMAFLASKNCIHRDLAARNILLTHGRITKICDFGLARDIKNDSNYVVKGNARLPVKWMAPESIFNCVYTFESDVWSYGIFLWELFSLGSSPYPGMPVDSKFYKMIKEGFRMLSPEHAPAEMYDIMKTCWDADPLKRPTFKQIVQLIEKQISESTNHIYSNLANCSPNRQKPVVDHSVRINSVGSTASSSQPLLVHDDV
Chain of FLT3-ITD (P36888 other isoform, or with tags, fused parts or gaps limits assumed, stated change not applied): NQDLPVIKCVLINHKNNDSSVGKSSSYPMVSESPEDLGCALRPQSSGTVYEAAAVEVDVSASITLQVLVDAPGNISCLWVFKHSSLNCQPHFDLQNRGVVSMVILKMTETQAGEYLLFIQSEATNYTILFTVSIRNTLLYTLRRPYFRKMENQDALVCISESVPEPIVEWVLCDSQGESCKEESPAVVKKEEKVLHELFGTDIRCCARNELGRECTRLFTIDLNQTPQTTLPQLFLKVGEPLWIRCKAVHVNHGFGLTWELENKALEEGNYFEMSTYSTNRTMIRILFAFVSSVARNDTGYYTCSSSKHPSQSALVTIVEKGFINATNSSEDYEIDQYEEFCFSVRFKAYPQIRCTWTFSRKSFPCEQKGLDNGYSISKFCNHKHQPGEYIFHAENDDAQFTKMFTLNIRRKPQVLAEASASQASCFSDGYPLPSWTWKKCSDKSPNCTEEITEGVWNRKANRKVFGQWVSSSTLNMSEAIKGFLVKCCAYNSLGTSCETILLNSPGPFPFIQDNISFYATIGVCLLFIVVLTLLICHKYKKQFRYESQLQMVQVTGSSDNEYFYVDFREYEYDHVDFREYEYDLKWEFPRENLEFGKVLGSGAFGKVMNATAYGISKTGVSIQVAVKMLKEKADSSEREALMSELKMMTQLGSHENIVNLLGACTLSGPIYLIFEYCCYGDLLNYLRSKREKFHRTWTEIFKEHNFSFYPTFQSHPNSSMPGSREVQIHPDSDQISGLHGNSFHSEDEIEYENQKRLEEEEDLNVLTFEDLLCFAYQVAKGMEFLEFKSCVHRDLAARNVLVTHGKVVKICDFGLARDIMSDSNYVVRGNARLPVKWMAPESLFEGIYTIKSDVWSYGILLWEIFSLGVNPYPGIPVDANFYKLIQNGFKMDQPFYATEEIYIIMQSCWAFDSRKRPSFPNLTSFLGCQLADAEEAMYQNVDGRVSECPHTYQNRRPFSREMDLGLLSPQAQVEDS

## CCOC(=O)c1nc2cc(OC)c(OC)cc2nc1-c1ccc(CC(=O)Nc2cc(C3(C(F)(F)F)CC3)on2)c(F)c1 [Example 132, ethyl 3-[3-fluoro-4-[2-oxo-2-[[5-[1-(trifluoro-methyl)cyclopropyl]isoxazol-3-yl]amino]ethyl]phenyl]-6,7-dimethoxy-quinoxaline-2-carboxylate]
FLT3-ITD
  IC50: > 50 nM
KIT kinase
  Kd: > 50 nM
FLT3 kinase
  Kd: > 50 nM

## COc1cc2nc(C(=O)O)c(-c3ccc(CC(=O)Nc4cc(C5(C(F)(F)F)CC5)on4)c(F)c3)nc2cc1OC [Example 133, 3-[3-fluoro-4-[2-oxo-2-[[5-[1-(trifluoro-methyl)cyclopropyl]isoxazol-3-yl]amino]ethyl]phenyl]-6,7-dimethoxy-quinoxaline-2-carboxylic acid]
FLT3-ITD
  IC50: > 50 nM
KIT kinase
  Kd: > 50 nM
FLT3 kinase
  Kd: 20 to 50 nM

## COc1cc2nc(-c3ccc(CC(=O)Nc4cc(C5(C(F)(F)F)CC5)on4)c(F)c3)cnc2cc1OCCN1CCCC1 [Example 134, 2-[2-fluoro-4-[7-methoxy-6-(2-pyrrolidin-1-ylethoxy)quinoxalin-2-yl]phenyl]-N-[5-[1-(trifluoromethyl)cyclo-propyl]isoxazol-3-yl]acetamide]
FLT3-ITD
  IC50: < 10 nM
KIT kinase
  Kd: < 5 nM
FLT3 kinase
  Kd: < 5 nM

## COc1cc2nc(C(N)=O)c(-c3ccc(CC(=O)Nc4cc(C5(C(F)(F)F)CC5)on4)c(F)c3)nc2cc1OC [Example 135, 3-[3-fluoro-4-[2-oxo-2-[[5-[1-(trifluoro-methyl)cyclopropyl]isoxazol-3-yl]amino]ethyl]phenyl]-6,7-dimethoxy-quinoxaline-2-carboxamide]
FLT3-ITD
  IC50: > 50 nM
KIT kinase
  Kd: > 50 nM
FLT3 kinase
  Kd: > 50 nM

## COc1cc2nc(-c3ccc(CC(=O)Nc4cc(C5(C(F)(F)F)CC5)on4)c(F)c3)cnc2cc1OCCOC(=O)N(C)C [Example 136, 2-[2-[3-fluoro-4-[2-oxo-2-[[5-[1-(trifluoro-methyl)cyclopropyl]isoxazol-3-yl]amino]ethyl]phenyl]-7-methoxy-quinoxalin-6-yl]oxyethyl N,N-dimethylcarbamate]
FLT3-ITD
  IC50: < 10 nM
KIT kinase
  Kd: 5 to 20 nM
FLT3 kinase
  Kd: < 5 nM

## COc1cc2nc(CO)c(-c3ccc(CC(=O)Nc4cc(C5(C(F)(F)F)CC5)on4)c(F)c3)nc2cc1OC [Example 137, 2-[2-fluoro-4-[3-(hydroxymethyl)-6,7-dimethoxy-quinoxalin-2-yl]phenyl]-N-[5-[1-(trifluoro-methyl)cyclopropyl]isoxazol-3-yl]acetamide]
FLT3-ITD
  IC50: < 10 nM
KIT kinase
  Kd: < 5 nM
FLT3 kinase
  Kd: < 5 nM

## COc1cc2ncc(-c3ccc(CC(=O)Nc4cc(C(C)(C)C(F)(F)F)on4)c(F)c3)c(Cl)c2cc1OC [Example 138, 2-[4-(4-chloro-6,7-dimethoxy-3-quinolyl)-2-fluoro-phenyl]-N-[5-(2,2,2-trifluoro-1,1-dimethyl-ethyl)isoxazol-3-yl]acetamide]
FLT3-ITD
  IC50: < 10 nM
KIT kinase
  Kd: < 5 nM
FLT3 kinase
  Kd: < 5 nM

## COc1cc2ncc(-c3ccc(CC(=O)Nc4cc(C(C)(C)C)nn4C)c(F)c3)nc2cc1OC [Example 139, N-(5-tert-butyl-2-methyl-pyrazol-3-yl)-2-[4-(6,7-dimethoxyquinoxalin-2-yl)-2-fluoro-phenyl]acetamide]
FLT3-ITD
  IC50: < 10 nM
KIT kinase
  Kd: < 5 nM
FLT3 kinase
  Kd: < 5 nM

## COc1cc2ncc(-c3ccc(CC(=O)Nc4cc(C(C)(C)C)nn4-c4ccccc4)c(F)c3)nc2cc1OC [Example 140, N-(5-tert-butyl-2-phenyl-pyrazol-3-yl)-2-[4-(6,7-dimethoxyquinoxalin-2-yl)-2-fluoro-phenyl]acetamide]
FLT3-ITD
  IC50: < 10 nM
KIT kinase
  Kd: 5 to 20 nM
FLT3 kinase
  Kd: < 5 nM

## COc1cc2ncc(-c3ccc(CC(=O)Nc4cc(C(C)(C)C(F)(F)F)on4)c(F)c3)c(N=[N+]=[N-])c2cc1OC [Example 141, 2-[4-(4-azido-6,7-dimethoxy-3-quinolyl)-2-fluoro-phenyl]-N-[5-(2,2,2-trifluoro-1,1-dimethyl-ethyl)isoxazol-3-yl]acetamide]
FLT3-ITD
  IC50: < 10 nM
KIT kinase
  Kd: 5 to 20 nM
FLT3 kinase
  Kd: < 5 nM

## CCN1CC(Oc2cc3ncc(-c4ccc(CC(=O)Nc5cc(C6(C(F)(F)F)CC6)on5)c(F)c4)nc3cc2OC)C1 [Example 142, 2-[4-[6-(1-ethylazetidin-3-yl)oxy-7-methoxy-quinoxalin-2-yl]-2-fluoro-phenyl]-N-[5-[1-(trifluoro-methyl)cyclopropyl]isoxazol-3-yl]acetamide]
FLT3-ITD
  IC50: < 10 nM
KIT kinase
  Kd: < 5 nM
FLT3 kinase
  Kd: < 5 nM

## COc1cc2ncc(-c3ccc(CC(=O)Nc4cc(C(C)(C)C(F)(F)F)on4)c(F)c3)c(N)c2cc1OC [Example 143, 2-[4-(4-amino-6,7-dimethoxy-3-quinolyl)-2-fluoro-phenyl]-N-[5-(2,2,2-trifluoro-1,1-dimethyl-ethyl)isoxazol-3-yl]acetamide]
FLT3-ITD
  IC50: 10 to 20 nM
KIT kinase
  Kd: 5 to 20 nM
FLT3 kinase
  Kd: < 5 nM

## COc1cc2nc(-c3ccc(CC(=O)Nc4cc(C5(C(F)(F)F)CC5)on4)c(F)c3)cnc2cc1OC1COC1 [Example 144, 2-[2-fluoro-4-[7-methoxy-6-(oxetan-3-yloxy)quinoxalin-2-yl]phenyl]-N-[5-[1-(trifluoro-methyl)cyclopropyl]isoxazol-3-yl]acetamide]
FLT3-ITD
  IC50: < 10 nM
KIT kinase
  Kd: < 5 nM
FLT3 kinase
  Kd: < 5 nM

## COc1cc2ncc(-c3ccc(CC(=O)Nc4cc(C(C)(C)C(F)(F)F)on4)c(F)c3)c(OC)c2cc1OC [Example 145, 2-[2-fluoro-4-(4,6,7-trimethoxy-3-quinolyl)phenyl]-N-[5-(2,2,2-trifluoro-1,1-dimethyl-ethyl)isoxazol-3-yl]acetamide]
FLT3-ITD
  IC50: > 50 nM
KIT kinase
  Kd: > 50 nM
FLT3 kinase
  Kd: 5 to 20 nM

## COc1cc2nc(Cl)c(-c3ccc(CC(=O)Nc4cc(C5(C(F)(F)F)CC5)on4)c(F)c3)nc2cc1OC [Example 146, 2-[4-(3-chloro-6,7-dimethoxy-quinoxalin-2-yl)-2-fluoro-phenyl]-N-[5-[1-(trifluoromethyl)cyclo-propyl]isoxazol-3-yl]acetamide]
FLT3-ITD
  IC50: < 10 nM
KIT kinase
  Kd: < 5 nM
FLT3 kinase
  Kd: < 5 nM

## COc1cc2nc(-c3ccc(CC(=O)Nc4cc(C(C)(C)C(F)(F)F)on4)c(F)c3)cnc2cc1OC1COC1 [Example 147, 2-[2-fluoro-4-[7-methoxy-6-(oxetan-3-yloxy)quinoxalin-2-yl]phenyl]-N-[5-(2,2,2-trifluoro-1,1-dimethyl-ethyl)isoxazol-3-yl]acetamide]
FLT3-ITD
  IC50: < 10 nM
KIT kinase
  Kd: < 5 nM
FLT3 kinase
  Kd: < 5 nM

## COc1cc2nc(-c3ccc(CC(=O)Nc4cc(C(C)(C)C(F)(F)F)on4)c(F)c3)cnc2cc1OC1CNC1 [Example 148, 2-[4-[6-(azetidin-3-yloxy)-7-methoxy-quinoxalin-2-yl]-2-fluoro-phenyl]-N-[5-(2,2,2-trifluoro-1,1-dimethyl-ethyl)isoxazol-3-yl]acetamide]
FLT3-ITD
  IC50: < 10 nM
KIT kinase
  Kd: 5 to 20 nM
FLT3 kinase
  Kd: < 5 nM

## CCN1CC(Oc2cc3ncc(-c4ccc(CC(=O)Nc5cc(C(C)(C)C(F)(F)F)on5)c(F)c4)nc3cc2OC)C1 [Example 149, 2-[4-[6-(1-ethylazetidin-3-yl)oxy-7-methoxy-quinoxalin-2-yl]-2-fluoro-phenyl]-N-[5-(2,2,2-trifluoro-1,1-dimethyl-ethyl)isoxazol-3-yl]acetamide]
FLT3-ITD
  IC50: < 10 nM
KIT kinase
  Kd: < 5 nM
FLT3 kinase
  Kd: < 5 nM

## COc1cc2nc(-c3ccc(CC(=O)Nc4cc(C(C)(C)C(F)(F)F)on4)c(F)c3)cnc2cc1OC1CN(C)C1 [Example 150, 2-[2-fluoro-4-[7-methoxy-6-(1-methylazetidin-3-yl)oxy-quinoxalin-2-yl]phenyl]-N-[5-(2,2,2-trifluoro-1,1-dimethyl-ethyl)isoxazol-3-yl]acetamide]
FLT3-ITD
  IC50: < 10 nM
KIT kinase
  Kd: < 5 nM
FLT3 kinase
  Kd: < 5 nM

## CC(C)(c1cc(NC(=O)Cc2ccc(-c3cnc4c(N)cccc4c3)cc2F)no1)C(F)(F)F [Example 151, 2-[4-(8-amino-3-quinolyl)-2-fluoro-phenyl]-N-[5-(2,2,2-trifluoro-1,1-dimethyl-ethyl)isoxazol-3-yl]acetamide]
FLT3-ITD
  IC50: < 10 nM
KIT kinase
  Kd: < 5 nM
FLT3 kinase
  Kd: < 5 nM

## COc1cc2nc(O)c(-c3ccc(CC(=O)Nc4cc(C5(C(F)(F)F)CC5)on4)c(F)c3)nc2cc1OC [Example 152, 2-[4-(6,7-dimethoxy-3-hydroxy-quinoxalin-2-yl)-2-fluoro-phenyl]-N-[5-[1-(trifluoromethyl)cyclo-propyl]isoxazol-3-yl]acetamide]
FLT3-ITD
  IC50: < 10 nM
KIT kinase
  Kd: < 5 nM
FLT3 kinase
  Kd: < 5 nM

## COc1cc2ncc(-c3ccc(CC(=O)Nc4cc(C(C)(C)C)n[nH]4)c(F)c3)nc2cc1OC [Example 153, N-(3-tert-butyl-1H-pyrazol-5-yl)-2-[4-(6,7-dimethoxyquinoxalin-2-yl)-2-fluoro-phenyl]acetamide]
FLT3-ITD
  IC50: < 10 nM
KIT kinase
  Kd: < 5 nM
FLT3 kinase
  Kd: < 5 nM

## CN(C)C(=O)COc1cc2ncc(-c3ccc(CC(=O)Nc4cc(C5(C(F)(F)F)CC5)on4)c(F)c3)nc2cc1OCC(=O)N(C)C [Example 154, 2-[4-[6,7-bis[2-(dimethylamino)-2-oxo-ethoxy]quinoxalin-2-yl]-2-fluoro-phenyl]-N-[5-[1-(trifluoromethyl)cyclo-propyl]isoxazol-3-yl]acetamide]
FLT3-ITD
  IC50: < 10 nM
KIT kinase
  Kd: < 5 nM
FLT3 kinase
  Kd: < 5 nM

## COc1ccc2ncc(-c3ccc(CC(=O)Nc4cc(C5(C(F)(F)F)CC5)on4)c(F)c3)nc2n1 [Example 155, 2-[2-fluoro-4-(6-methoxypyrido[2,3-b]pyrazin-3-yl)phenyl]-N-[5-[1-(trifluoromethyl)cyclo-propyl]isoxazol-3-yl]acetamide OR 2-[2-fluoro-4-(6-methoxypyrido[2,3-b]pyrazin-2-yl)phenyl]-N-[5-[1-(trifluoromethyl)cyclo-propyl]isoxazol-3-yl]acetamide]
FLT3-ITD
  IC50: < 10 nM
KIT kinase
  Kd: 5 to 20 nM
FLT3 kinase
  Kd: < 5 nM
